Measurements as given in patent publication US11492375B2, “Cyclic peptide immunomodulators” (Bristol-Myers Squibb Company, priority 2017, dated 2022).
Like-named read-outs stand apart in the source and are kept apart here.

Target: PD-1-Ig binding to PD-L1-TVMV-His (PD-L1-His) (Homo sapiens (Human), UniProt Q9NZQ7)
Assay: PD-1/PD-L1 Homogenous Time-Resolved Fluorescence (HTRF) binding assay
Conditions: PD-1-Ig/PD-L1-His binding, read-out: HTRF IC50 (μM) or Range
Description: The ability of the macrocyclic peptides of the present disclosure to bind to PD-L1 was investigated using a PD-1/PD-L1 Homogenous Time-Resolved Fluorescence (HTRF) binding assay.
Homogenous Time-Resolved Fluorescence (HTRF) Assays of Binding of Soluble PD-1 to Soluble PD-L1. Soluble PD-1 and soluble PD-L1 refers to proteins with carboxyl-end truncations that remove the transmembrane-spanning regions and are fused to heterologous sequences, specifically the Fc portion of the human immunoglobuling G sequence (Ig) or the hexahistidine epitope tag (His). All binding studies were performed in an HTRF assay buffer consisting of dPBS supplemented with 0.1% (w/v) bovine serum albumin and 0.05% (v/v) Tween-20. For the PD-1-Ig/PD-L1-His binding assay, inhibitors were pre-incubated with PD-L1-His (10 nM final) for 15m in 4 μl of assay buffer, followed by addition of PD-1-Ig (20 nM final) in 1 μl of assay buffer and further incubation for 15 m. PD-L1 fusion proteins from either human, cynomologous macaques, mouse, or other species were used. HTRF detection was achieved using europium crypate-labeled anti-Ig monoclonal antibody (1 nM final) and allophycocyanin (APC) labeled anti-His monoclonal antibody (20 nM final). Antibodies were diluted in HTRF detection buffer and 5 μl was dispensed on top of binding reaction. The reaction was allowed to equilibrate for 30 minutes and signal (665 nm/620 nm ratio) was obtained using an EnVision fluorometer. Additional binding assays were established between PD-1-Ig/PD-L2-His (20 and 5 nM, respectively), CD8O-His/PD-L1-Ig (100 and 10 nM, respectively) and CD80-His/CTLA4-Ig (10 and 5 nM, respectively). Binding/competition studies between biotinylated Compound No. 71 and human PD-L1-His were performed as follows. Macrocyclic peptide inhibitors were pre-incubated with PD-L1-His (10 nM final) for 60 minutes in 4 μl of assay buffer followed by addition of biotinylated Compound No. 71 (0.5 nM final) in 1 μl of assay buffer. Binding was allowed to equilibrate for 30 minutes followed by addition of europium crypated labeled Streptavidin (2.5 pM final) and APC-labeled anti-His (20 nM final) in 5 μl of HTRF buffer. The reaction was allowed to equilibrate for 30 m and signal (665 nm/620 nm ratio) was obtained using an EnVision fluorometer.
Recombinant Proteins. Carboxyl-truncated human PD-1 (amino acids 25-167) with a C-terminal human Ig epitope tag [hPD-1 (25-167)-35-IG] and human PD-L1 (amino acids 18-239) with a C-terminal His epitope tag [hPD-L1(19-239)-tobacco vein mottling virus protease cleavage site (TVMV)-His] were expressed in HEK293T cells and purified sequentially by recombinant Protein A affinity chromatography and size exclusion chromatography. Human PD-L2-His (Sino Biologicals), CD80-His (Sino Biologicals), CTLA4-Ig (RnD Systems) were all obtained through commercial sources.

Sequence of PD-1-Ig binding to PD-L1-TVMV-His (PD-L1-His) (Q9NZQ7 other isoform, or with tags, fused parts or gaps): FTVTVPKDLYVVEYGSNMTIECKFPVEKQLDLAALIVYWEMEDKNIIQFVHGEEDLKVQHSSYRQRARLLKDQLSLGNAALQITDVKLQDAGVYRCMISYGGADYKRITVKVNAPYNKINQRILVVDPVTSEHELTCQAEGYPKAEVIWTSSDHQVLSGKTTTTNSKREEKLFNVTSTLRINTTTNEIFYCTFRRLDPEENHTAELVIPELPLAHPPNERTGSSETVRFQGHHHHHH

Structure (SMILES)	IC50 (value given as range class)	IC50 (numeric value)
CC(C)C[C@@H]1NC(=O)[C@H](Cc2cnc[nH]2)NC(=O)[C@@H]2CCCN2C(=O)[C@H](CC(N)=O)NC(=O)[C@H](C)N(C)C(=O)[C@H](Cc2ccccc2)NC(=O)CSC[C@@H](C(=O)NCC(N)=O)NC(=O)[C@H](CCCNC(=N)N)NC(=O)[C@@H]2CCCC/C=C/CCCC[C@@H](C(=O)N2C)N(C)C(=O)[C@H](Cc2c[nH]c3ccccc23)NC(=O)[C@H](CO)NC(=O)[C@H](Cc2c[nH]c3ccccc23)NC(=O)CN(C)C1=O [Example 1001]	0.01 to 0.099 µM	–
CC(C)C[C@@H]1NC(=O)[C@H](Cc2cnc[nH]2)NC(=O)[C@@H]2CCCN2C(=O)[C@H](CC(N)=O)NC(=O)[C@H](C)N(C)C(=O)[C@H](Cc2ccccc2)NC(=O)CSC[C@@H](C(=O)NCC(N)=O)NC(=O)[C@H](CCCNC(=N)N)NC(=O)[C@@H]2CCCCC/C=C/CCCCC[C@@H](C(=O)N2C)N(C)C(=O)[C@H](Cc2c[nH]c3ccccc23)NC(=O)[C@H](CO)NC(=O)[C@H](Cc2c[nH]c3ccccc23)NC(=O)CN(C)C1=O [Example 1002]	0.01 to 0.099 µM	–
CC(C)C[C@@H]1NC(=O)[C@H](Cc2cnc[nH]2)NC(=O)[C@@H]2CCCN2C(=O)[C@H](CC(N)=O)NC(=O)[C@H](C)N(C)C(=O)[C@H](Cc2ccccc2)NC(=O)CSC[C@@H](C(=O)NCC(N)=O)NC(=O)[C@H](CCCNC(=N)N)NC(=O)[C@@H]2CCCC/C=C\CCCC[C@@H](C(=O)N2C)N(C)C(=O)[C@H](Cc2c[nH]c3ccccc23)NC(=O)[C@H](CO)NC(=O)[C@H](Cc2c[nH]c3ccccc23)NC(=O)CN(C)C1=O [Example 1100]	0.01 to 0.099 µM	–
CC(C)C[C@@H]1NC(=O)[C@H](Cc2cnc[nH]2)NC(=O)[C@@H]2CCCN2C(=O)[C@H](CC(N)=O)NC(=O)[C@H](C)N(C)C(=O)[C@H](Cc2ccc(O)cc2)NC(=O)CSC[C@@H](C(=O)NCC(N)=O)NC(=O)[C@H](CCCNC(=N)N)NC(=O)[C@@H]2CCC/C=C\CCC[C@@H](C(=O)N2C)N(C)C(=O)[C@H](Cc2c[nH]c3ccccc23)NC(=O)[C@H](CO)NC(=O)[C@H](Cc2c[nH]c3ccccc23)NC(=O)[C@@H]2C[C@@H](O)CN2C1=O [Example 1101]	0.1 to 2 µM	–
CC(C)C[C@@H]1NC(=O)[C@H](Cc2cnc[nH]2)NC(=O)[C@@H]2CCCN2C(=O)[C@H](CC(N)=O)NC(=O)[C@H](C)N(C)C(=O)[C@H](Cc2ccc(O)cc2)NC(=O)CSC[C@@H](C(=O)NCC(N)=O)NC(=O)[C@H](CCCNC(=N)N)NC(=O)[C@@H]2CC/C=C\CC[C@@H](C(=O)N2C)N(C)C(=O)[C@H](Cc2c[nH]c3ccccc23)NC(=O)[C@H](CO)NC(=O)[C@H](Cc2c[nH]c3ccccc23)NC(=O)[C@@H]2C[C@@H](O)CN2C1=O [Example 1102]	0.1 to 2 µM	–
CC(C)C[C@@H]1NC(=O)[C@H](CN)NC(=O)[C@@H]2CCCN2C(=O)[C@H](CC(N)=O)NC(=O)[C@H](C)N(C)C(=O)[C@H](Cc2ccc(O)cc2)NC(=O)CSC[C@H](C(=O)NCC(N)=O)NC(=O)[C@@H](C)NC(=O)[C@H]2CC/C=C\CC[C@@H](C(=O)N2C)N(C)C(=O)[C@H](Cc2c[nH]c3ccccc23)NC(=O)[C@H](CO)NC(=O)[C@@H](Cc2c[nH]c3ccccc23)NC(=O)[C@@H]2C[C@@H](O)CN2C1=O [Example 1103]	–	1.5 µM
CC(C)C[C@@H]1NC(=O)[C@H](CN)NC(=O)[C@@H]2CCCN2C(=O)[C@H](CC(N)=O)NC(=O)[C@H](C)N(C)C(=O)[C@H](Cc2ccc(O)cc2)NC(=O)CSC[C@H](C(=O)NCC(N)=O)NC(=O)[C@@H](CCCN)NC(=O)[C@H]2CCC/C=C\CCC[C@@H](C(=O)N2C)N(C)C(=O)[C@H](Cc2c[nH]c3ccccc23)NC(=O)[C@H](CO)NC(=O)[C@@H](Cc2c[nH]c3ccccc23)NC(=O)[C@@H]2C[C@@H](O)CN2C1=O [Example 1104]	0.01 to 0.099 µM	–
CC(C)C[C@@H]1NC(=O)[C@H](Cc2cnc[nH]2)NC(=O)[C@@H]2CCCN2C(=O)[C@H](CC(N)=O)NC(=O)[C@@H]2COCCN2C(=O)[C@H](Cc2ccc(O)cc2)NC(=O)CSC[C@H](C(=O)NCC(N)=O)NC(=O)[C@@H](C)NC(=O)C2CCC/C=C\CCC[C@@H](C(=O)N2C)N(C)C(=O)[C@H](Cc2c[nH]c3ccccc23)NC(=O)[C@H](CO)NC(=O)[C@@H](Cc2c[nH]c3ccccc23)NC(=O)[C@@H]2C[C@@H](O)CN2C1=O [Example 1105]	0.1 to 2 µM	–
CC(C)C[C@@H]1NC(=O)[C@H](CN)NC(=O)[C@@H]2CCCN2C(=O)[C@H](CC(N)=O)NC(=O)[C@H](C)N(C)C(=O)[C@H](Cc2ccc(O)cc2)NC(=O)CSC[C@H](C(=O)NCC(N)=O)NC(=O)[C@@H](C)NC(=O)[C@H]2CCC/C=C\CCC[C@@H](C(=O)N2C)N(C)C(=O)[C@H](Cc2c[nH]c3ccccc23)NC(=O)[C@H](CO)NC(=O)[C@@H](Cc2c[nH]c3ccccc23)NC(=O)[C@@H]2C[C@@H](O)CN2C1=O [Example 1106]	0.1 to 2 µM	–
CC(C)C[C@@H]1NC(=O)[C@H](CN)NC(=O)[C@@H]2CCCN2C(=O)[C@H](CC(N)=O)NC(=O)[C@H](C)N(C)C(=O)[C@H](Cc2ccc(O)cc2)NC(=O)CSC[C@@H](C(N)=O)NC(=O)[C@H](CCCNC(=N)N)NC(=O)[C@@H]2CCCC/C=C\CCCC[C@@H](C(=O)N2C)N(C)C(=O)[C@H](Cc2c[nH]c3ccccc23)NC(=O)[C@H](CO)NC(=O)[C@H](Cc2c[nH]c3ccccc23)NC(=O)[C@@H]2C[C@@H](O)CN2C1=O [Example 1107]	0.01 to 0.099 µM	–
C[C@H]1C(=O)N[C@@H](CC(=O)O)C(=O)N2CCC[C@H]2C(=O)N[C@@H](CN)C(=O)N[C@@H](CCC(=O)O)C(=O)N2C[C@H](O)C[C@H]2C(=O)N[C@@H](Cc2c[nH]c3ccccc23)C(=O)N[C@@H](CO)C(=O)N[C@@H](Cc2c[nH]c3ccccc23)C(=O)N(C)[C@H]2CCCC/C=C\CCCC[C@@H](C(=O)N[C@@H](CCC(=O)O)C(=O)N[C@H](C(N)=O)CSCC(=O)N[C@@H](Cc3ccc(O)cc3)C(=O)N1C)N(C)C2=O [Example 1108]	0.002 to 0.0099 µM	–
CC(C)C[C@@H]1NC(=O)[C@H](CN)NC(=O)[C@@H]2CCCN2C(=O)[C@H](CC(N)=O)NC(=O)[C@H](C)N(C)C(=O)[C@H](Cc2ccc(O)cc2)NC(=O)CSC[C@H](C(=O)NCC(N)=O)NC(=O)[C@@H](CCCNC(=N)N)NC(=O)[C@@H]2CCCC/C=C\CCCC[C@@H](C(=O)N2C)N(C)C(=O)[C@H](Cc2c[nH]c3ccccc23)NC(=O)[C@H](CO)NC(=O)[C@@H](Cc2c[nH]c3ccccc23)NC(=O)[C@@H]2C[C@@H](O)CN2C1=O [Example 1109]	0.002 to 0.0099 µM	–
CC(C)C[C@@H]1NC(=O)[C@H](Cc2c[nH]cn2)NC(=O)[C@@H]2CCCN2C(=O)[C@H](CC(N)=O)NC(=O)[C@@H]2COCCN2C(=O)[C@H](Cc2ccc(O)cc2)NC(=O)CSC[C@H](C(=O)NCC(N)=O)NC(=O)[C@@H](C)NC(=O)[C@@H]2CCC/C=C\CCC[C@@H](C(=O)N2C)N(C)C(=O)[C@H](Cc2c[nH]c3ccccc23)NC(=O)[C@H](CO)NC(=O)[C@@H](Cc2c[nH]c3ccccc23)NC(=O)[C@@H]2C[C@@H](O)CN2C1=O [Example 1110]	0.01 to 0.099 µM	–
C[C@H]1C(=O)N[C@@H](CC(=O)O)C(=O)N2CCC[C@H]2C(=O)N[C@@H](CN)C(=O)N[C@@H](CCC(=O)O)C(=O)N2C[C@H](O)C[C@H]2C(=O)N[C@@H](Cc2c[nH]c3ccccc23)C(=O)N[C@@H](CO)C(=O)N[C@@H](Cc2c[nH]c3ccccc23)C(=O)N(C)[C@H]2CCCC/C=C\CCCC[C@@H](C(=O)N[C@@H](CCC(=O)O)C(=O)N[C@H](C(=O)NCC(N)=O)CSCC(=O)N[C@@H](Cc3ccc(O)cc3)C(=O)N1C)N(C)C2=O [Example 1111]	0.002 to 0.0099 µM	–
C[C@@H]1NC(=O)[C@@H]2CCCC/C=C\CCCC[C@@H](C(=O)N2C)N(C)C(=O)[C@H](Cc2c[nH]c3ccccc23)NC(=O)[C@H](CO)NC(=O)[C@H](Cc2c[nH]c3ccccc23)NC(=O)[C@@H]2C[C@@H](O)CN2C(=O)[C@H](CCC(N)=O)NC(=O)[C@H](CN)NC(=O)[C@@H]2CCCN2C(=O)[C@H](CC(=O)O)NC(=O)[C@H](C)N(C)C(=O)[C@H](Cc2ccc(O)cc2)NC(=O)CSC[C@@H](C(=O)NCC(N)=O)NC1=O [Example 1112]	0.002 to 0.0099 µM	–
